Test results: patent US12728111B2, “Electrophilic compounds and electrophilic prodrugs for treating aneurysm” (University of Pittsburgh—Of the Commonwealth System of …, priority 2020, dated 2026)

Legend:
[1] = system: AngII/PCSK9-induced AAA mouse model; experiment: Ang II plus hypercholesterolemia (AngII/PCSK9) induced AAA mouse model; assay type: in vivo
Method: FIG. 1. Characterization of the protective effect of NO2—OA (10-nitro-octadec-9-enoic acid) in the Ang II plus hypercholesterolemia-induced AAA mouse model. (A) Schematic illustration of the in vivo experimental design. Ten week old male C57BL/6 mice were IP injected with AAV carrying PCSK9 gain-of-function (D377Y) mutation and fed a western diet. After two weeks, each mouse was implanted with a pump delivering AngII at a rate of 1,500 ng/kg/min plus an additional pump containing either PEG-400 (vehicle), OA or NO2—OA with a delivery rate of 5 mg/kg/day (n=25 to 30 per group) and carried to the endpoint for another four weeks. Mice with ruptured aorta within the first week or with total plasma cholesterol less than 250 mg/dl were excluded from the study. (B) Representative morphological differences of the abdominal aorta. (C) AAA incidence calculated by using 1.2 mm as the cutoff diameter indicated by the dotted line in (D). (D) Average maximal diameter of the suprarenal aorta region. (E) Representative H&E and VVG staining of the paraffin-embedded suprarenal aortic cross-sections (5 μm). (F) Grade of elastic fiber degradation in the aorta (1 to 4). A 2×3 Fisher's exact test followed by posthoc test was performed for (C). For (D) and (F), the Kruskal-Wallis test followed by Dunn's multiple comparisons was performed. Continuous data are presented as mean±SEM. Scale bar=20 μm for (E). A p<0.05 for both the main test and post hoc test was considered statistically significant.
Ten weeks old male C57BL/6J mice were purchased from The Jackson Laboratory. The murine AAA model induced by AngII/PCSK9 gain-of-function mutation is well-established. After acclimation for 1 week, mice were fed a western diet (TD.88137, Envigo) and intraperitoneally injected with 2×1011 genomic copies of AAV-PCSK9.D377Y (AAV serotype 8, Penn Vector Core). Two weeks later, each mouse was subcutaneously implanted with two osmotic pumps (Model #2004, Alzet). One was loaded with AngII (#H-1706, Bachem), releasing at a rate of 1,500ng/kg/min, while the other one was loaded with PEG-400, OA or NO2—OA at a delivery rate of 5 mg/kg/day for OA or NO2—OA. After 4-weeks infusion, mice were euthanized and the maximal outer diameter of the suprarenal aorta was assessed with a digital caliper by a third person blinded to the treatment. Suprarenal aortas with a maximal diameter ≥50% larger than standard size (≥1.2 mm) were considered as abdominal aortic aneurysms. Mice dead within the first week of pump implantation or with a serum total cholesterol level less than 250 mg/dL were excluded from the study. All animal procedures were performed following the protocols approved by the Institutional Animal Care & Use Committee (IACUC) at the University of Michigan.
H&E and Verhoeff Van Gieson staining of paraffin or frozen sections of mouse suprarenal abdominal aorta were performed by the In-Vivo Animal Core at the University of Michigan. Elastin degradation grade was calculated as we previously reported.

[2] = system: oxLDL-induced Il1b and Mmp9 expression in BMDMs; experiment: Real-time PCR of oxLDL-induced pro-inflammatory genes in BMDMs; assay type: cell-based, mouse; conditions: PPARγ antagonist or siRNA given with NO2—OA
Method: FIG. 3. NO2—OA prevents oxLDL-induced NFκB activation and pro-inflammatory cytokine production. Primary BMDMs were pretreated with vehicle, OA (2.5 μM) or NO2—OA (2.5 μM) for 1 h, followed by treatment of oxLDL (50 to 100 μg/ml) for the indicated times. (A, B) Nuclear (A) and cytoplasmic protein (B) fractions were isolated 1 h after oxLDL treatment and subjected to western blot with antibodies against p65, lamin a/c (nuclear marker) and GAPDH (cytosolic marker). Representative western blot images of three independent experiments are shown. (C) Quantification of the p65 nuclear to cytoplasmic ratio by image studio (normalized by the internal control, n=3). (D-F) Following 8 h of oxLDL treatment, levels of IL6, MCP1 and TNFα in the cell medium were measured by ELISA (n=4). (G) Real-time PCR quantification of gene expression levels of IL1b and Mmp9 in total mRNA extracted from the BMDMs. (C) Ordinary one-way ANOVA followed by Tukey's test was performed. As of (D-F), the basal level contains several non-detectable values, so ordinary one-way ANOVA followed by correction of FDR were performed for the oxLDL-treated groups only. Ordinary one-way ANOVA followed by Tukey's test was performed for (G). Data presented as mean±SEM. A p<0.05 for both the main test and post hoc test was considered statistically significant.
Mice suprarenal aortas were collected after the measurement of their diameter. Human aortic aneurysm samples were obtained from the Department of Cardiac Surgery at the University of Michigan. Samples from humans and mice were snap-frozen in liquid nitrogen for later processing. RNA from tissue was extracted using TRIzol (#15596018, Invitrogen). RNA from cells was isolated with the RNeasy Mini Kit (#74106, QIAGEN). SuperScript™ III First-Strand Synthesis System (#18080051, Invitrogen) was used to reverse-transcribe mRNA into cDNA. Gene expression was quantified in triplicates by quantitative real-time PCR (qPCR) using IQ SYBR Green Supermix (#1708882, Bio-Rad) with the indicated gene primers.

In the case of CCCCCCCCC=CCCCCCCCC(=O)O [OA, octadec-9-enoic acid, reference compound], the AAA incidence ([1]; 5 mg/kg/day subcutaneous infusion, after 4 weeks, cutoff diameter 1.2 mm) is reported as 69.6%, the “maximal diameter of the suprarenal aorta region” value ([1]; 5 mg/kg/day subcutaneous infusion, after 4 weeks, mean±SEM) is reported as 1.78±0.18 mm and the “ECM degradation / elastin fiber degradation” value ([1]; 5 mg/kg/day, 4 weeks, VVG staining, grade 1 to 4) is reported as “prominent”.

O=C(Nc1ccccc1)c1cc([N+](=O)[O-])ccc1Cl [GW9662, reference compound] was tested, and the “protective effect of NO2—OA on oxLDL-induced Il1b and Mmp9 expression” value [2] was “partially blocked”.
